Test results: patent publication US20260062412A1, “NITROGEN-CONTAINING HETEROCYCLIC COMPOUND HAVING MYT1 INHIBITORY ACTIVITY” (CHUGAI SEIYAKU KABUSHIKI KAISHA, priority 2023, published 2026)

target: MYT1 protein (Homo sapiens (Human), UniProt Q99640); assay: Test for binding to ATP binding site of MYT1 (Kinase Tracer 178 / Eu-Anti-GST antibody TR-FRET); conditions: ATP binding site of MYT1, 30 minutes at room temperature
Description: The binding capacity of each compound to the ATP binding site of MYT1 Kinase protein was evaluated. 5× Kinase Buffer A (manufactured by Thermo Fisher Scientific Inc., PV3189) was diluted to 5 times with Milli-Q water, thereby preparing 1× Kinase Buffer. Using 1× Kinase Buffer, MYT1 protein (manufactured by Carna Biosciences, Inc.) was diluted to a concentration of 0.005 μM and Eu-Anti-GST Antibody was diluted to a concentration of 1 μM. […] To a 96 well-plate, 2.5 μL of a compound diluted with DMSO was added. […] The mixture was well mixed and then allowed to stand at room temperature for 30 minutes. Thereafter, fluorescence wavelengths of 665 nm and 615 nm generated by irradiation with excitation light of 340 nm were detected using Envision (manufactured by PerkinElmer). The proportion of Tracer bound to MYT1 protein was calculated for every condition by dividing the intensity at the fluorescence wavelength of 665 nm by the intensity at the fluorescence wavelength of 615 nm.

MYT1 protein, sequence (Q99640 whole entry): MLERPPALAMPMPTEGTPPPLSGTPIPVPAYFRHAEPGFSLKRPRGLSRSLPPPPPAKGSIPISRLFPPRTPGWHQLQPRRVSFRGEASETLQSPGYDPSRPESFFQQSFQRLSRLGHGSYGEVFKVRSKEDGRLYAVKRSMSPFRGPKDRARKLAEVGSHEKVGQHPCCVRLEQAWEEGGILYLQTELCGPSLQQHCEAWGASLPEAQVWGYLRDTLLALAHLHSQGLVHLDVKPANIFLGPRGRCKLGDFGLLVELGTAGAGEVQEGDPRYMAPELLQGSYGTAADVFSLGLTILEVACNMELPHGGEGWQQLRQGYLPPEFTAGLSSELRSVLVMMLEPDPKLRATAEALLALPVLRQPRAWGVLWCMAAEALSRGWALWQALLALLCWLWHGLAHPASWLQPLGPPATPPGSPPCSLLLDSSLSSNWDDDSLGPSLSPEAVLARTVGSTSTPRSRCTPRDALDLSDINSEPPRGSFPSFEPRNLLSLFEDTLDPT

SMILES	IC50 [µM]
COc1cccc(-c2c(N)c(=O)[nH]c3c2ccc2ccccc23)c1 [Compound B1, 3-Amino-4-(3-methoxyphenyl)-1H-benzo[h]quinolin-2-one]	5.6
Nc1c(-c2cccc(O)c2)c2cc(Br)c3ccccc3c2[nH]c1=O [Compound B4, 3-Amino-6-bromo-4-(3-hydroxyphenyl)-1H-benzo[h]quinolin-2-one]	0.027
Nc1c(-c2cccc(O)c2)c2cc(-c3ccccc3)c3ccccc3c2[nH]c1=O [Compound B5, 3-Amino-4-(3-hydroxyphenyl)-6-phenyl-1H-benzo[h]quinolin-2-one]	0.42
Cc1cc2c(-c3cccc(O)c3)c(N)c(=O)[nH]c2c2ccccc12 [Compound B6, 3-Amino-4-(3-hydroxyphenyl)-6-methyl-1H-benzo[h]quinolin-2-one]	0.007
Nc1c(-c2cccc(O)c2)c2cc(Cl)c3ccccc3c2[nH]c1=O [Compound B8, 3-Amino-6-chloro-4-(3-hydroxyphenyl)-1H-benzo[h]quinolin-2-one]	0.012
Nc1c(-c2ccc(F)c3[nH]ncc23)c2cc(Br)c3ccccc3c2[nH]c1=O [Compound B21, 3-Amino-6-bromo-4-(7-fluoro-1H-indazol-4-yl)-1H-benzo[h]quinolin-2-one]	0.02
Nc1c(-c2ccc(F)c3[nH]ncc23)c2cc(C3CCCC3)c3ccccc3c2[nH]c1=O [Compound B25, 3-Amino-6-cyclopentyl-4-(7-fluoro-1H-indazol-4-yl)-1H-benzo[h]quinolin-2-one]	0.024
CC#Cc1cc2c(-c3ccc(F)c4[nH]ncc34)c(N)c(=O)[nH]c2c2ccccc12 [Compound B28, 3-Amino-4-(7-fluoro-1H-indazol-4-yl)-6-prop-1-inyl-1H-benzo[h]quinolin-2-one]	0.022
Cn1cc(-c2cc3c(-c4ccc(F)c5[nH]ncc45)c(N)c(=O)[nH]c3c3ccccc23)cn1 [Compound B29, 3-Amino-4-(7-fluoro-1H-indazol-4-yl)-6-(1-methylpyrazole-4-yl)-1H-benzo[h]quinolin-2-one]	0.0092
C=Cc1cc2c(-c3ccc(F)c4[nH]ncc34)c(N)c(=O)[nH]c2c2ccccc12 [Compound B30, 3-Amino-6-ethenyl-4-(7-fluoro-1H-indazol-4-yl)-1H-benzo[h]quinolin-2-one]	0.015
Cn1c(=O)c(N)c(-c2ccc(F)c3[nH]ncc23)c2cc(Br)c3ccccc3c21 [Compound B33, 3-Amino-6-bromo-4-(7-fluoro-1H-indazol-4-yl)-1-methylbenzo[h]quinolin-2-one]	2.6
Nc1c(-c2ccc(Cl)c3[nH]ncc23)c2cc(C3CCCC3)c3ccccc3c2[nH]c1=O [Compound B40, 3-Amino-4-(7-chloro-1H-indazol-4-yl)-6-cyclopentyl-1H-benzo[h]quinolin-2-one]	0.013
N#Cc1cc2c(-c3ccc(C#N)c4[nH]ncc34)c(N)c(=O)[nH]c2c2ccccc12 [Compound B42, 3-Amino-4-(7-cyano-1H-indazol-4-yl)-2-oxo-1H-benzo[h]quinoline-6-carbonitrile]	0.25
Cn1ncc2c(-c3c(N)c(=O)[nH]c4c3cc(Br)c3ncccc34)ccc(F)c21 [Compound C2, 3-Amino-6-bromo-4-(7-fluoro-1-methylindazol-4-yl)-1H-1,7-phenanthrolin-2-one]	1.1
Nc1c(-c2ccc(F)c3[nH]ncc23)c2cc(O)c3ncccc3c2[nH]c1=O [Compound C3, 3-Amino-4-(7-fluoro-1H-indazol-4-yl)-6-hydroxy-1H-1,7-phenanthrolin-2-one]	0.0036
Nc1c(-c2ccc(F)c3[nH]ncc23)c2cc(OC3CCOCC3)c3ncccc3c2[nH]c1=O [Compound C7, 3-Amino-4-(7-fluoro-1H-indazol-4-yl)-6-(oxan-4-yloxy)-1H-1,7-phenanthrolin-2-one]	0.0012

Now from value to compound:

IC50 [µM]	SMILES
0.096	Nc1c(-c2ccc(Cl)c3[nH]ncc23)c2cc(OCC3(F)CC3)c(F)cc2[nH]c1=O [Compound A72, 3-Amino-4-(7-chloro-1H-indazol-4-yl)-7-fluoro-6-[(1-fluorocyclopropyl)methoxy]-1H-quinolin-2-one]
0.12	Nc1c(-c2ccc(F)c3[nH]ncc23)c2cc(I)c3ccc(Cl)cc3c2[nH]c1=O [Compound B9, 3-Amino-9-chloro-4-(7-fluoro-1H-indazol-4-yl)-6-iodo-1H-benzo[h]quinolin-2-one]
0.036	Nc1c(-c2ccc(F)c3[nH]ncc23)c2cc(C3CC3)c3ccc(Cl)cc3c2[nH]c1=O [Compound B10, 3-Amino-9-chloro-6-cyclopropyl-4-(7-fluoro-1H-indazol-4-yl)-1H-benzo[h]quinolin-2-one]
0.03	Nc1c(-c2ccc(F)c3[nH]ncc23)c2ccc3ccc(Cl)cc3c2[nH]c1=O [Compound B11, 3-Amino-9-chloro-4-(7-fluoro-1H-indazol-4-yl)-1H-benzo[h]quinolin-2-one]
0.02	Cc1cc2c(-c3ccc(F)c4[nH]ncc34)c(N)c(=O)[nH]c2c2cc(Cl)ccc12 [Compound B12, 3-Amino-9-chloro-4-(7-fluoro-1H-indazol-4-yl)-6-methyl-1H-benzo[h]quinolin-2-one]
0.085	Nc1c(-c2ccc(F)c3[nH]ncc23)c2cc(I)c3cc(Cl)ccc3c2[nH]c1=O [Compound B13, 3-Amino-8-chloro-4-(7-fluoro-1H-indazol-4-yl)-6-iodo-1H-benzo[h]quinolin-2-one]
0.018	Nc1c(-c2ccc(F)c3[nH]ncc23)c2cc(C3CC3)c3cc(Cl)ccc3c2[nH]c1=O [Compound B14, 3-Amino-8-chloro-6-cyclopropyl-4-(7-fluoro-1H-indazol-4-yl)-1H-benzo[h]quinolin-2-one]
0.0086	Cc1cc2c(-c3ccc(F)c4[nH]ncc34)c(N)c(=O)[nH]c2c2ccc(Cl)cc12 [Compound B15, 3-Amino-8-chloro-4-(7-fluoro-1H-indazol-4-yl)-6-methyl-1H-benzo[h]quinolin-2-one]
0.046	Nc1c(-c2ccc(F)c3[nH]ncc23)c2cc(Br)c3c(Cl)cccc3c2[nH]c1=O [Compound B16, 3-Amino-6-bromo-7-chloro-4-(7-fluoro-1H-indazol-4-yl)-1H-benzo[h]quinolin-2-one]
0.015	Nc1c(-c2ccc(F)c3[nH]ncc23)c2cc(C3CC3)c3c(Cl)cccc3c2[nH]c1=O [Compound B17, 3-Amino-7-chloro-6-cyclopropyl-4-(7-fluoro-1H-indazol-4-yl)-1H-benzo[h]quinolin-2-one]
0.023	Nc1c(-c2ccc(F)c3[nH]ncc23)c2ccc3c(Cl)cccc3c2[nH]c1=O [Compound B18, 3-Amino-7-chloro-4-(7-fluoro-1H-indazol-4-yl)-1H-benzo[h]quinolin-2-one]
0.022	Cc1cc2c(-c3ccc(F)c4[nH]ncc34)c(N)c(=O)[nH]c2c2cccc(Cl)c12 [Compound B19, 3-Amino-7-chloro-4-(7-fluoro-1H-indazol-4-yl)-6-methyl-1H-benzo[h]quinolin-2-one]
0.042	Nc1c(-c2ccc(F)c3[nH]ncc23)c2cc(C3CC3)c3cccc(Cl)c3c2[nH]c1=O [Compound B20, 3-Amino-10-chloro-6-cyclopropyl-4-(7-fluoro-1H-indazol-4-yl)-1H-benzo[h]quinolin-2-one]
0.014	Nc1c(-c2ccc(Cl)c3[nH]ncc23)c2cc(Br)c3ccccc3c2[nH]c1=O [Compound B36, 3-Amino-6-bromo-4-(7-chloro-1H-indazol-4-yl)-1H-benzo[h]quinolin-2-one]
0.0046	CCc1cc2c(-c3ccc(Cl)c4[nH]ncc34)c(N)c(=O)[nH]c2c2ccccc12 [Compound B38, 3-Amino-4-(7-chloro-1H-indazol-4-yl)-6-ethyl-1H-benzo[h]quinolin-2-one]
0.01	Nc1c(-c2ccc(Cl)c3[nH]ncc23)c2cc(C3CCC3)c3ccccc3c2[nH]c1=O [Compound B39, 3-Amino-4-(7-chloro-1H-indazol-4-yl)-6-cyclobutyl-1H-benzo[h]quinolin-2-one]
0.014	N#Cc1cc2c(-c3ccc(Cl)c4[nH]ncc34)c(N)c(=O)[nH]c2c2ccccc12 [Compound B41, 3-Amino-4-(7-chloro-1H-indazol-4-yl)-2-oxo-1H-benzo[h]quinoline-6-carbonitrile]
0.015	Cc1cc2c(-c3ccc(Cl)c4[nH]ncc34)c(N)c(=O)[nH]c2c2ccccc12 [Compound B43, 3-Amino-4-(7-chloro-1H-indazol-4-yl)-6-methyl-1H-benzo[h]quinolin-2-one]
0.014	Nc1c(-c2ccc(Cl)c3[nH]ncc23)c2ccc3ccccc3c2[nH]c1=O [Compound B44, 3-Amino-4-(7-chloro-1H-indazol-4-yl)-1H-benzo[h]quinolin-2-one]
0.033	Nc1c(-c2ccc(Cl)c3[nH]ncc23)c2cc(Cl)c3ccccc3c2[nH]c1=O [Compound B45, 3-Amino-6-chloro-4-(7-chloro-1H-indazol-4-yl)-1H-benzo[h]quinolin-2-one]
0.0014	Nc1c(-c2ccc(F)c3[nH]ncc23)c2cc(O[C@@H]3CCOC3)c3ncccc3c2[nH]c1=O [Compound C5, 3-Amino-4-(7-fluoro-1H-indazol-4-yl)-6-[(3R)-oxolan-3-yl]oxy-1H-1,7-phenanthrolin-2-one]
0.001	Nc1c(-c2ccc(F)c3[nH]ncc23)c2cc(OC3CCCC3)c3ncccc3c2[nH]c1=O [Compound C6, 3-Amino-6-cyclopentyloxy-4-(7-fluoro-1H-indazol-4-yl)-1H-1,7-phenanthrolin-2-one]
0.0032	Nc1c(-c2ccc(F)c3[nH]ncc23)c2cc(OCC3CCC3)c3ncccc3c2[nH]c1=O [Compound C9, 3-Amino-6-(cyclobutylmethoxy)-4-(7-fluoro-1H-indazol-4-yl)-1H-1,7-phenanthrolin-2-one]
